Converted amounts (≈) assume the structure as drawn. Read-outs that look alike come from different tables or passages of the source.
Tests used:
Type in all cases: cell-based
[1] = tested on: Enterococcus faecium ATCC 700221 (VRE); test: Broth microdilution MIC, E. faecium ATCC 700221 (VRE); conditions: Enterococcus faecium, broth microdilution, 37° C., 20 hours
Method in brief: (§1)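 Broth microdilution in strain-specific test medium with ~5.0×10^5 cfu/ml inoculum, 1% DMSO and two-fold compound dilutions from 64 to 0.0625 μg/ml. Plates were held 20 hours at 37° C in ambient air. S. pneumoniae colonies were grown beforehand on blood agar in 5% CO2.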

[2] = tested on: Staphylococcus aureus ATCC 29213 (MSSA); test: Broth microdilution MIC, S. aureus ATCC 29213 (MSSA); conditions: broth microdilution, 37° C., 20 hours, read-out: MIC S. aureus ATCC 29213 (MSSA)
Method in brief: as §1

[3] = tested on: Staphylococcus aureus NRS384 (MRSA); test: Broth microdilution MIC, S. aureus NRS384 (MRSA); conditions: Staphylococcus aureus, broth microdilution, 37° C., 20 hours
Method in brief: as §1

[4] = tested on: Bacillus subtilis ATCC 6633; test: Broth microdilution MIC, B. subtilis ATCC 6633; conditions: ATCC6633, broth microdilution, 37° C., 20 hours, read-out: MIC B. subtilis ATCC 6633
Method in brief: as §1

[5] = tested on: Escherichia coli ATCC 25922; test: Broth microdilution MIC, E. coli ATCC 25922 (MHIIB w & w/o 4 mM EDTA); conditions: broth microdilution, 37° C., 20 hours; for MIC: Escherichia coli, ATCC25922, without EDTA, read-out: MIC E. coli ATCC 25922; for MIC E. coli ATCC 25922 + 4 mM EDTA: with 4 mM EDTA
Method in brief: as §1

[6] = tested on: Enterococcus faecalis ATCC 29212; test: Broth microdilution MIC, E. faecalis ATCC 29212; conditions: ATCC29212, broth microdilution, 37° C., 20 hours, read-out: MIC E. faecalis ATCC 29212
Method in brief: as §1

[7] = tested on: Streptococcus pneumoniae ATCC 49619; test: Broth microdilution MIC, S. pneumoniae ATCC 49619; conditions: ATCC49619, broth microdilution, 37° C., 20 hours, read-out: MIC S. pneumoniae ATCC 49619
Method in brief: as §1

[8] = read-out: MIC E. faecium ATCC 700221 (VRE)
[9] = MHIIB, read-out: MIC against E. faecium ATCC 700221 (VRE)
[10] = S. aureus NRS 384, read-out: MIC NRS 384 (MRSA)
[11] = MHIIB, read-out: MIC against S. aureus NRS 384 (MRSA)

Structure (SMILES) | MIC [1, 8] [µg/mL] | MIC [1, 9] [µg/mL] | MIC [2] [µg/mL] | MIC [3, 10] [µg/mL] | MIC [3, 11] [µg/mL] | MIC [4] [µg/mL] | MIC [5] [µg/mL] | MIC E. coli ATCC 25922 + 4 mM EDTA [5] [µg/mL] | MIC [6] [µg/mL] | MIC [7] [µg/mL]
COCCn1nc(Cl)c2nc(NCc3ccc(Cl)c(Cl)c3)[nH]c(=O)c21 [Compound 304, 3-Chloro-5-((3,4-dichlorobenzyl)amino)-1-(2-methoxyethyl)-1H-pyrazolo[4,3-d]pyrimidin-7(6H)-one] | 0.5 (≈ 1.24 µM) | ≤ 1 | 1 (≈ 2.48 µM) | 1 (≈ 2.48 µM) | ≤ 1 | 0.5 (≈ 1.24 µM) | > 64 | >64 | 2 (≈ 4.97 µM) | 2 (≈ 4.97 µM)
COCCn1nc(F)c2nc(NCc3ccc(Cl)c(Cl)c3)[nH]c(=O)c21 [Compound 305, 5-((3,4-Dichlorobenzyl)amino)-3-fluoro-1-(2-methoxyethyl)-1H-pyrazolo[4,3-d]pyrimidin-7(6H)-one] | 1 (≈ 2.59 µM) | ≤ 1 | 1 (≈ 2.59 µM) | 1 (≈ 2.59 µM) | ≤ 1 | 0.5 (≈ 1.29 µM) | > 64 | >64 | 2 (≈ 5.18 µM) | 4 (≈ 10.4 µM)
O=c1[nH]c(NCc2ccc(Cl)c(Cl)c2)nc2c(F)nn(Cc3cocn3)c12 [Compound 306, 5-((3,4-Dichlorobenzyl)amino)-3-fluoro-1-(oxazol-4-ylmethyl)-1H-pyrazolo[4,3-d]pyrimidin-7(6H)-one] | 1 (≈ 2.44 µM) | – | 2 (≈ 4.89 µM) | 2 (≈ 4.89 µM) | – | 0.5 (≈ 1.22 µM) | > 64 | >64 | 2 (≈ 4.89 µM) | 4 (≈ 9.77 µM)
O=c1[nH]c(NCc2ccc(Cl)c(Cl)c2)nc2c(Cl)nn(Cc3cocn3)c12 [Compound 307, 3-Chloro-5-((3,4-dichlorobenzyl)amino)-1-(oxazol-4-ylmethyl)-1H-pyrazolo[4,3-d]pyrimidin-7(6H)-one] | 1 (≈ 2.35 µM) | ≤ 1 | 1 (≈ 2.35 µM) | 1 (≈ 2.35 µM) | ≤ 1 | 0.5 (≈ 1.17 µM) | > 64 | >64 | 2 (≈ 4.7 µM) | 4 (≈ 9.4 µM)
COCCn1nc(F)c2nc(NCc3ccc(F)c(F)c3)[nH]c(=O)c21 [Compound 308, 5-((3,4-Difluorobenzyl)amino)-3-fluoro-1-(2-methoxyethyl)-1H-pyrazolo[4,3-d]pyrimidin-7(6H)-one] | 4 (≈ 11.3 µM) | – | 4 (≈ 11.3 µM) | 4 (≈ 11.3 µM) | – | 2 (≈ 5.66 µM) | > 64 | >64 | 8 (≈ 22.6 µM) | 4 (≈ 11.3 µM)
O=c1[nH]c(NCc2ccc(F)c(F)c2)nc2c(Cl)nn(CCOCCO)c12 [Compound 309, 3-Chloro-5-[(3,4-difluorophenyl)methylamino]-1-[2-(2-hydroxyethoxy)ethyl]-6H-pyrazolo[4,3-d]pyrimidin-7-one] | 16 (≈ 40 µM) | – | 16 (≈ 40 µM) | 16 (≈ 40 µM) | – | 8 (≈ 20 µM) | > 64 | >64 | 32 (≈ 80 µM) | 8 (≈ 20 µM)
Cc1cc(CNc2nc3c(F)nn(CCOCCO)c3c(=O)[nH]2)ccc1F [Compound 311, 3-Fluoro-5-((4-fluoro-3-methylbenzyl)amino)-1-(2-(2-hydroxyethoxy)ethyl)-1H-pyrazolo[4,3-d]pyrimidin-7(6H)-one] | 16 (≈ 42.2 µM) | – | 16 (≈ 42.2 µM) | 16 (≈ 42.2 µM) | – | 8 (≈ 21.1 µM) | > 64 | >64 | 16 (≈ 42.2 µM) | 32 (≈ 84.4 µM)
Cc1ccc(CNc2nc3c(F)nn(CCOCCO)c3c(=O)[nH]2)cc1F [Compound 313, 3-Fluoro-5-((3-fluoro-4-methylbenzyl)amino)-1-(2-(2-hydroxyethoxy)ethyl)-1H-pyrazolo[4,3-d]pyrimidin-7(6H)-one] | 8 (≈ 21.1 µM) | – | 8 (≈ 21.1 µM) | 16 (≈ 42.2 µM) | – | 2 (≈ 5.27 µM) | > 64 | >64 | 16 (≈ 42.2 µM) | 8 (≈ 21.1 µM)
